Experimental data taken from patent publication US10300051B2, “Cyclopropylamines as LSD1 inhibitors” (priority 2014, dated 2019).
pIC50: −log10 of the molar value.

target: LSD-1 enzyme (Homo sapiens (Human), UniProt O60341); assay type: biochemical; details: not given
Protocol: Example A: LSD1 Histone Demethylase Biochemical Assay
LANCE LSD1/KDM1A demethylase assay—10 μL of 1 nM LSD-1 enzyme (ENZO BML-SE544-0050) in the assay buffer (50 mM Tris, pH 7.5, 0.01% Tween-20, 25 mM NaCl, 5 mM DTT) were preincubated for 1 hour at 25° C. with 0.8 μL compound/DMSO dotted in black 384 well polystyrene plates. […] Reactions were stopped by addition of 10 μL 1× LANCE Detection Buffer (PerkinElmer CR97-100) supplemented with 1.5 nM Eu-anti-unmodified H3K4 Antibody (PerkinElmer TRF0404), and 225 nM LANCE Ultra Streptavidin (PerkinElmer TRF102) along with 0.9 mM Tranylcypromine-HCl (Millipore 616431). After stopping the reactions plates were incubated for 30 minutes and read on a PHERAstar FS plate reader (BMG Labtech).

Row | Compound | pIC50
1 | CN(C)CC(=O)N1CCC(CN[C@@H]2C[C@H]2c2ccccc2)(Cc2cccc(C#N)c2)CC1 [Example 57, 3-{[1-[(dimethylamino)acetyl]-4-({[(1R,2S)-2-phenylcyclopropyl]amino}methyl)piperidin-4-yl]methyl}benzonitrile] | > 7.00

same assay, conditions: 1 nM LSD-1 enzyme, 1 hour preincubation at 25° C., Biotin-labeled Histone H3 peptide substrate

Row | Compound | pIC50
2 | COc1ccc(CC2(CN[C@@H]3C[C@H]3c3ccccc3)CCN(CCC(=O)O)CC2)cn1 [Example 50, 3-[4-[(6-methoxypyridin-3-yl)methyl]-4-({[(1R,2S)-2-phenylcyclopropyl]amino}methyl)piperidin-1-yl]propanoic Acid] | > 7.00
3 | CCOCC1(CN[C@@H]2C[C@H]2c2ccccc2)CCN(CCC(=O)O)CC1 [Example 51, 3-[4-(ethoxymethyl)-4-({[(1R,2S)-2-phenylcyclopropyl]amino}methyl)piperidin-1-yl]propanoic Acid] | > 7.00
4 | O=C(O)CCN1CCC(CN[C@@H]2C[C@H]2c2ccccc2)(COCC2CCC2)CC1 [Example 52, 3-[4-[(cyclobutylmethoxy)methyl]-4-({[(1R,2S)-2-phenylcyclopropyl]amino}methyl)piperidin-1-yl]propanoic Acid] | > 7.00
5 | O=C(O)CCN1CCC(CN[C@@H]2C[C@H]2c2ccccc2)(COC2CCCCC2)CC1 [Example 53, 3-[4-[(cyclohexyloxy)methyl]-4-({[(1R,2S)-2-phenylcyclopropyl]amino}methyl)piperidin-1-yl]propanoic Acid] | > 7.00
6 | O=C(O)CCN1CCC(CN[C@@H]2C[C@H]2c2ccccc2)(Cc2ccc(F)cn2)CC1 [Example 54, 3-[4-[(5-fluoropyridin-2-yl)methyl]-4-({[(1R,2S)-2-phenylcyclopropyl]amino}methyl)piperidin-1-yl]propanoic Acid] | > 7.00
7 | COc1ccc(CC2(CN[C@@H]3C[C@H]3c3ccccc3)CCN(CCC(=O)O)CC2)cc1 [Example 55, 3-[4-(4-methoxybenzyl)-4-({[(1R,2S)-2-phenylcyclopropyl]amino}methyl)piperidin-1-yl]propanoic Acid] | > 7.00
8 | N#CCCN1CCC(CN[C@@H]2C[C@H]2c2ccccc2)(Cc2cccc(C(=O)O)c2)CC1 [Example 56, 3-{[1-(2-cyanoethyl)-4-({[(1R,2S)-2-phenylcyclopropyl]amino}methyl)piperidin-4-yl]methyl}benzoic Acid] | > 7.00
9 | CN(C)CC(=O)N1CCC(CN[C@@H]2C[C@H]2c2ccccc2)(Cc2cccc(C(N)=O)c2)CC1 [Example 58, 3-{[1-[(dimethylamino)acetyl]-4-({[(1R,2S)-2-phenylcyclopropyl]amino}methyl)piperidin-4-yl]methyl}benzamide] | > 7.00
10 | COc1cccc(CC2(CN[C@@H]3C[C@H]3c3ccccc3)CCN(CCC(=O)O)CC2)c1 [Example 59, 3-[4-(3-methoxybenzyl)-4-({[(1R,2S)-2-phenylcyclopropyl]amino}methyl)piperidin-1-yl]propanoic Acid] | > 7.00
11 | CCOc1cccc(CC2(CN[C@@H]3C[C@H]3c3ccccc3)CCN(CCC(=O)O)CC2)c1 [Example 60, 3-[4-(3-ethoxybenzyl)-4-({[(1R,2S)-2-phenylcyclopropyl]amino}methyl)piperidin-1-yl]propanoic Acid] | > 7.00
12 | COCC1(CN[C@@H]2C[C@H]2c2ccccc2)CCN(C(=O)CN2CCOCC2)CC1 [Example 61, (1R,2S)—N-{[4-(methoxymethyl)-1-(morpholin-4-ylacetyl)piperidin-4-yl]methyl}-2-phenylcyclopropanamine] | > 7.00
